PubChem BioAssay AID248 (DTP/NCI, 2004)
“And” between values parts separate entries of the source, which are not always exact repeats. Equal values may be shown once. Toxic doses and inconclusive results are not listed.

Test system: L1210 leukemia ip in BDF1 mice, survival T/C
Assay: NCI In Vivo Anticancer Drug Screen. Data for tumor model L1210 Leukemia (intraperitoneal) in B6D2F1 (BDF1) mice
Conditions: endpoint: mean survival time, higher = longer survival
Summary of the method: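 Transplantable tumor model; survival measured in treated vs vehicle control mice. Value = treated/control.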

[1] = dose: 100.0 mg/kg/injection, schedule: Q01DX001 (ip), vehicle: saline
[2] = dose: 200.0 mg/kg/injection, schedule: Q01DX001 (ip), vehicle: saline
[3] = dose: 400.0 mg/kg/injection, schedule: Q01DX001 (ip), vehicle: saline
[4] = dose: 75.0 mg/kg/injection, schedule: Q01DX009 (ip), vehicle: Klucel (hydroxypropylcellulose) (HPC)
[5] = dose: 100.0 mg/kg/injection, schedule: Q04DX003 (ip), vehicle: Klucel (hydroxypropylcellulose) (HPC)
[6] = dose: 200.0 mg/kg/injection, schedule: Q04DX003 (ip), vehicle: Klucel (hydroxypropylcellulose) (HPC)
[7] = dose: 400.0 mg/kg/injection, schedule: Q04DX003 (ip), vehicle: Klucel (hydroxypropylcellulose) (HPC)
[8] = dose: 50.0 mg/kg/injection, schedule: Q01DX009 (ip), vehicle: saline
[9] = dose: 400.0 mg/kg/injection, schedule: Q01DX001 (ip), vehicle: Klucel (hydroxypropylcellulose) (HPC)
[10] = dose: 100.0 mg/kg/injection, schedule: Q01DX009 (ip), vehicle: saline with Tween-80
[11] = dose: 200.0 mg/kg/injection, schedule: Q01DX009 (ip), vehicle: saline with Tween-80
[12] = dose: 100.0 mg/kg/injection, schedule: Q04DX002 (ip), vehicle: Klucel (hydroxypropylcellulose) (HPC)
[13] = dose: 200.0 mg/kg/injection, schedule: Q04DX002 (ip), vehicle: Klucel (hydroxypropylcellulose) (HPC)
[14] = dose: 400.0 mg/kg/injection, schedule: Q04DX002 (ip), vehicle: Klucel (hydroxypropylcellulose) (HPC)

O=C(N/N=C/c1ccccc1)NNCc1ccccc1
T/C (dose: 100.0 mg/kg/injection, schedule: Q01DX001 (ip), vehicle: other): 97 % of control
T/C (dose: 100.0 mg/kg/injection, schedule: Q04DX003 (ip), vehicle: other): 111 % of control
T/C (dose: 200.0 mg/kg/injection, schedule: Q01DX001 (ip), vehicle: other): 97 % of control
T/C (dose: 200.0 mg/kg/injection, schedule: Q04DX003 (ip), vehicle: other): 101 % of control
T/C (dose: 400.0 mg/kg/injection, schedule: Q01DX001 (ip), vehicle: other): 104 % of control
T/C (dose: 400.0 mg/kg/injection, schedule: Q04DX003 (ip), vehicle: other): 86 % of control

c1ccc(CCNc2ncnc3[nH]ncc23)cc1
T/C (dose: 12.0 mg/kg/injection, schedule: Q01DX015 (ip), vehicle: carboxymethylcellulose (CMC)): 97 % of control
T/C (dose: 25.0 mg/kg/injection, schedule: Q01DX015 (ip), vehicle: carboxymethylcellulose (CMC)): 97 % of control
T/C (dose: 50.0 mg/kg/injection, schedule: Q01DX015 (ip), vehicle: carboxymethylcellulose (CMC)): 95 % of control

COc1ccc(C(=O)C(C)C)cc1
T/C (dose: 37.5 mg/kg/injection, schedule: Q01DX009 (ip), vehicle: saline sonified): 95 % of control
T/C (dose: 75.0 mg/kg/injection, schedule: Q01DX009 (ip), vehicle: saline sonified): 93 % of control
T/C (dose: 150.0 mg/kg/injection, schedule: Q01DX009 (ip), vehicle: saline sonified): 103 % of control

O=C(O)c1ccc([N+](=O)[O-])cc1P(=O)(O)O
T/C (dose: 75.0 mg/kg/injection, schedule: Q04DX003 (ip), vehicle: saline with Tween-80): 103 % of control

O=C(Nc1nc2ccccc2[nH]1)C(F)(F)F
T/C [1]: 97 % of control
T/C [2]: 100 % of control
T/C [3]: 97 % of control

COc1ccc2ccc(OC)c(C=O)c2c1
T/C [4]: 98 % of control
T/C (dose: 150.0 mg/kg/injection, schedule: Q01DX009 (ip), vehicle: Klucel (hydroxypropylcellulose) (HPC)): 101 % of control
T/C (dose: 300.0 mg/kg/injection, schedule: Q01DX009 (ip), vehicle: Klucel (hydroxypropylcellulose) (HPC)): 98 % of control

CCOC(=O)c1cnc(SC)nc1Nc1ccccc1OC
T/C [5]: 90 % of control
T/C [6]: 92 % of control
T/C [7]: 87 % of control

COc1cc(C(=O)O)c(C(=O)O)cc1OC
T/C (dose: 12.5 mg/kg/injection, schedule: Q01DX001 (ip), vehicle: Klucel (hydroxypropylcellulose) (HPC)): 104 % of control
T/C (dose: 12.5 mg/kg/injection, schedule: Q01DX009 (ip), vehicle: saline): 101 % of control
T/C (dose: 25.0 mg/kg/injection, schedule: Q01DX001 (ip), vehicle: Klucel (hydroxypropylcellulose) (HPC)): 108 % of control
T/C (dose: 25.0 mg/kg/injection, schedule: Q01DX009 (ip), vehicle: saline): 103 % of control
T/C (dose: 50.0 mg/kg/injection, schedule: Q01DX001 (ip), vehicle: Klucel (hydroxypropylcellulose) (HPC)): 101 % of control
T/C [8]: 104 % of control
T/C [4]: 97 % of control
T/C (dose: 115.0 mg/kg/injection, schedule: Q01DX009 (ip), vehicle: Klucel (hydroxypropylcellulose) (HPC)): 100 % of control
T/C (dose: 170.0 mg/kg/injection, schedule: Q01DX009 (ip), vehicle: Klucel (hydroxypropylcellulose) (HPC)): 100 % of control
T/C [9]: 88 % of control

O=C(Oc1ccccc1C(=O)O)c1ccccc1O
T/C (dose: 50.0 mg/kg/injection, schedule: Q04DX003 (ip), vehicle: Klucel (hydroxypropylcellulose) (HPC)): 90 % of control
T/C [5]: 97 % of control and 102 % of control
T/C [6]: 114 % of control
T/C [7]: 96 % of control

NNc1nc2c(N)ncnc2n1C1OC(CO)C(O)C1O (stereo not drawn)
T/C (dose: 100.0 mg/kg/injection, schedule: Q01DX005 (ip), vehicle: saline): 104 % of control
T/C (dose: 200.0 mg/kg/injection, schedule: Q01DX005 (ip), vehicle: saline): 107 % of control

COP(=O)(OC)C(=O)c1ccc([N+](=O)[O-])cc1
T/C [1]: 98 % of control
T/C [2]: 95 % of control
T/C [3]: 103 % of control

COC(C)C1(C)NC(=O)NC1=O (stereo not drawn)
T/C [1]: 114 % of control
T/C [2]: 110 % of control
T/C [3]: 102 % of control

COP(=O)(OC)C1C2CC3C(C2)C31 (stereo not drawn)
T/C (dose: 100.0 mg/kg/injection, schedule: Q04DX003 (ip), vehicle: acetone): 103 % of control
T/C (dose: 200.0 mg/kg/injection, schedule: Q04DX003 (ip), vehicle: acetone): 97 % of control
T/C (dose: 400.0 mg/kg/injection, schedule: Q04DX003 (ip), vehicle: acetone): 100 % of control

CCN=C(c1ccc(NC(=O)c2ccc(C(=O)Nc3ccc(C(=NCC)N(CC)C(=O)Nc4ccc(OC)cc4)cc3)cc2)cc1)N(CC)C(=O)Nc1ccc(OC)cc1
T/C (dose: 2.25 mg/kg/injection, schedule: Q01DX015 (ip), vehicle: methylcellulose (MC)): 108 % of control
T/C (dose: 3.12 mg/kg/injection, schedule: Q01DX015 (ip), vehicle: methylcellulose (MC)): 101 % of control
T/C (dose: 4.5 mg/kg/injection, schedule: Q01DX015 (ip), vehicle: methylcellulose (MC)): 110 % of control
T/C (dose: 6.25 mg/kg/injection, schedule: Q01DX015 (ip), vehicle: methylcellulose (MC)): 124 % of control
T/C (dose: 12.5 mg/kg/injection, schedule: Q01DX015 (ip), vehicle: methylcellulose (MC)): 170 % of control

Oc1ccccc1N=Cc1ccccc1
T/C [1]: 94 % of control
T/C [2]: 100 % of control
T/C [3]: 103 % of control

O=[N+]([O-])c1ccc2c(c1)S(=O)c1cc([N+](=O)[O-])c(Br)cc1-2 (stereo not drawn) (tested in a mixture with another compound)
T/C (dose: 50.0 mg/kg/injection, schedule: Q04DX002 (ip), vehicle: saline with Tween-80): 96 % of control
T/C (dose: 100.0 mg/kg/injection, schedule: Q04DX002 (ip), vehicle: saline with Tween-80): 96 % of control
T/C (dose: 200.0 mg/kg/injection, schedule: Q04DX002 (ip), vehicle: saline with Tween-80): 96 % of control

O=Cc1cccc(Oc2cccc(C=O)c2)c1
T/C (dose: 100.0 mg/kg/injection, schedule: Q01DX001 (ip), vehicle: Klucel (hydroxypropylcellulose) (HPC)): 97 % of control
T/C (dose: 200.0 mg/kg/injection, schedule: Q01DX001 (ip), vehicle: Klucel (hydroxypropylcellulose) (HPC)): 95 % of control
T/C [9]: 92 % of control

CC(=O)Nc1ccc(NC(=O)c2ccc([As](O)O)cc2)cc1
T/C (dose: 25.0 mg/kg/injection, schedule: Q01DX001 (ip), vehicle: carboxymethylcellulose (CMC)): 100 % of control
T/C (dose: 50.0 mg/kg/injection, schedule: Q01DX001 (ip), vehicle: carboxymethylcellulose (CMC)): 102 % of control
T/C (dose: 100.0 mg/kg/injection, schedule: Q01DX001 (ip), vehicle: carboxymethylcellulose (CMC)): 107 % of control
T/C (dose: 200.0 mg/kg/injection, schedule: Q01DX001 (ip), vehicle: carboxymethylcellulose (CMC)): 113 % of control

Cn1nc(SCc2ccccc2)c(N)nc1=O
T/C [1]: 102 % of control
T/C [2]: 100 % of control
T/C [3]: 101 % of control

O=C(OCC1OC(OC2(COC(=O)c3ccccc3)OC(COC(=O)c3ccccc3)C(OC(=O)c3ccccc3)C2OC(=O)c2ccccc2)C(OC(=O)c2ccccc2)C(OC(=O)c2ccccc2)C1OC(=O)c1ccccc1)c1ccccc1 (stereo not drawn)
T/C [10]: 95 % of control
T/C [11]: 92 % of control
T/C (dose: 400.0 mg/kg/injection, schedule: Q01DX009 (ip), vehicle: saline with Tween-80): 92 % of control

COc1cc(OC)c(OC)cc1/C=C\c1ccc2ccccc2[n+]1C
T/C (dose: 25.0 mg/kg/injection, schedule: Q04DX003 (ip), vehicle: saline with Tween-80): 101 % of control
T/C (dose: 50.0 mg/kg/injection, schedule: Q04DX003 (ip), vehicle: saline with Tween-80): 90 % of control

CCOC(=O)CN1C(=O)CN=C(c2ccccn2)c2cc(Cl)ccc21
T/C [10]: 91 % of control
T/C [11]: 93 % of control

NS(=O)(=O)c1ccc(Cl)cc1
T/C [8]: 95 % of control
T/C (dose: 100.0 mg/kg/injection, schedule: Q01DX009 (ip), vehicle: saline): 102 % of control
T/C [12]: 103 % of control
T/C (dose: 100.0 mg/kg/injection, schedule: Q04DX003 (ip), vehicle: saline with Tween-80): 104 % of control
T/C [13]: 103 % of control
T/C (dose: 200.0 mg/kg/injection, schedule: Q04DX003 (ip), vehicle: saline with Tween-80): 112 % of control
T/C [14]: 103 % of control

CCS(=O)(=O)N1CC(C)OC(C)C1 (stereo not drawn)
T/C [12]: 96 % of control
T/C [13]: 103 % of control
T/C [14]: 107 % of control

Cc1cc(=O)c2cc(Cl)cc(Br)c2[nH]1
T/C [1]: 94 % of control
T/C [2]: 96 % of control
T/C [3]: 103 % of control
